{
  "source": "patent US20250025526A1",
  "about": "“COMBINATION THERAPY FOR THE TREATMENT OF FRIEDREICH'S ATAXIA” (Stealth BioTherapeutics Inc., priority 2023, published 2025)",
  "key": {"[1]": {"tested_on": "FA (GM03665; Coriell) fibroblasts", "assay": "Cytoprotection assay, RSL3-induced ferroptosis, FA fibroblasts (CellTiter-Glo cell viability)", "assay_type": "cell-based, human", "settings": "FA patient derived fibroblasts; 18 hour pre-incubation with test compounds 0.001 uM to 1 uM; then 0.5 uM RSL3 for 4 hours; FIG. 2", "protocol": "(§1) To initiate the cytoprotection experiment, healthy (GM08402; Coriell) and FA (GM03665; Coriell) fibroblasts were resuspended in assay medium (Minimum Essential Medium Eagle w/Earles Salts and L-glutamine (MEM; Corning)+15% Qualified Fetal Bovine Serum (FBS)+penicillin (100 U)/streptomycin ([…]), seeded at 10,000 cells per well in a clear, tissue cultured treated 96 well plate), and incubated at 37° C. Eight hours later, the assay medium was manually removed and test compounds, elamipretide (Stealth Biotherapeutics Inc., Needham, MA) and omaveloxolone were added to a final volume of 100 uL at concentrations ranging between 0.001 uM and 1 uM. Following an 18 hour incubation at 37° C., the assay medium was again manually removed. Healthy fibroblasts and FA fibroblasts were then treated with 100 μL of 1 uM and 0.5 uM RSL3 (Sigma, Catalog #1219810), respectively, in assay medium for 4 hours at 37° C. Cell viability was assessed with CellTiter-Glo Luminescent Cell Viability (Promega). Luminescence units were quantified by GEN5 software on a BioTek SYNERGY neo2 plate reader (LUM filter). The data obtained for the health cells are graphically illustrated in FIG. 1 and the data obtained for the FA fibroblasts are graphically illustrated in FIG. 2. […]"}, "[2]": {"tested_on": "healthy (GM08402; Coriell) fibroblasts", "assay": "Cytoprotection assay, RSL3-induced ferroptosis, healthy fibroblasts (CellTiter-Glo cell viability)", "assay_type": "cell-based, human", "settings": "healthy patient derived fibroblasts; 18 hour pre-incubation with test compounds 0.001 uM to 1 uM; then 1 uM RSL3 for 4 hours; FIG. 1", "protocol": "as §1"}},
  "note": "Where a SMILES comes first, the peptide text is derived from it. [ ]: non-standard residue; d: D form. Dmt = Cc1cc(O)cc(C)c1C[C@H](N)C(=O)O",
  "data": [
    {"smiles": "Cc1cc(O)cc(C)c1C[C@H](NC(=O)[C@H](N)CCCNC(=N)N)C(=O)N[C@@H](CCCCN)C(=O)N[C@@H](Cc1ccccc1)C(N)=O", "note": "[elamipretide, H-D-Arg-2′,6′Dmt-Lys-Phe-NH2] (H-[dR][Dmt]KF-NH2)", "values": [
      {"measurement": "protective/rescue effect on the RSL3 treated cells (cell viability)", "setting": "[1]", "value": "no apparent effect"},
      {"measurement": "protective/rescue effect on the RSL3 treated cells (cell viability)", "setting": "[2]", "value": "no apparent effect"}
    ]},
    {"smiles": "CC1(C)CC[C@]2(NC(=O)C(C)(F)F)CC[C@]3(C)[C@H](C(=O)C=C4[C@@]5(C)C=C(C#N)C(=O)C(C)(C)[C@@H]5CC[C@]43C)[C@@H]2C1", "note": "[omaveloxolone, Omaveloxolone]", "values": [
      {"measurement": "protective/rescue effect on the RSL3 treated cells (cell viability)", "setting": "[1]", "value": "significant protective/rescue effect"},
      {"measurement": "protective/rescue effect on the RSL3 treated cells (cell viability)", "setting": "[2]", "value": "significant protective/rescue effect"}
    ]}
  ]
}
